Experimental data: patent US20110190247A1, “CYCLOPROPYLCHROMENE DERIVATIVES AS MODULATORS OF THE ALPHA-2C RECEPTOR” (Schering Corporation, priority 2008, published 2011)

Assays:
α2C receptor [1] = molecular target: T1, α2C receptor (Homo sapiens, UniProt P18825); test: GTPγS assay, efficacy agonist activity (Emax) at α2C; type: biochemical; conditions: for evaluated as agonist of the α2C receptor subtype: by definition: efficacy at α2C 30% Emax (GTPγS assay), functionally selective if efficacy at α2A ≦35% Emax; for evaluated as antagonist of the α2C receptor subtype: by definition: efficacy at α2C <30% Emax (GTPγS assay) and Ki <500 nM
T1 sequence (P18825 1-462): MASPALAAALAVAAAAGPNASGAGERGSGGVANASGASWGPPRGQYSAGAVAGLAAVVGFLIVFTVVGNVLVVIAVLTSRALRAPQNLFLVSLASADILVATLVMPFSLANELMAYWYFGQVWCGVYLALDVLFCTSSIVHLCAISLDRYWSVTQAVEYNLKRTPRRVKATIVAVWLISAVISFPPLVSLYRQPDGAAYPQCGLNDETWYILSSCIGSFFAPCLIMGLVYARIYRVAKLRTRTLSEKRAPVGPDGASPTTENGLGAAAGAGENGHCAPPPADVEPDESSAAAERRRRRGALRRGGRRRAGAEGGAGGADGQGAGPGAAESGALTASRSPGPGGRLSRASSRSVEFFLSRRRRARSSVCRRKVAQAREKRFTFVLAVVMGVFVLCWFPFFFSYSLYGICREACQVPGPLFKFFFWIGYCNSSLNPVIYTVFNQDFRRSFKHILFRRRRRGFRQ
Protocol: Efficacy agonist activity values (Emax, GTPγS assay) for α2A and α2C were determined by following the general procedure detailed by Umland et. al (“Receptor reserve analysis of the human α2c-adrenoceptor using [^35S]GTPγS and cAMP functional assays” European Journal of Pharmacology 2001, 411, 211-221). For the purposes of the present invention, a compound is defined to be a specific or at least functionally selective agonist of the α2C receptor subtype if the compound's efficacy at the α2C receptor is […] (GTPγS assay) and its efficacy at the α2A receptor is ≦35% Emax (GTPγS assay). Additionally, for the purposes of this invention, a compound is defined to be an antagonist of the α2C receptor subtype if the compound's efficacy at the α2C receptor is <30% Emax (GTPγS assay) and the Ki at the α2C receptor subtype was <500 nM, preferentially <200 nM, and most preferentially <20 nM.

α2C receptor [2] = molecular target: T1, α2C receptor; test: binding inhibition at the α2C receptor (Ki); conditions: compounds classed as α2C antagonists; read-out: Ki at the α2C receptor subtype

| Ki (α2C receptor [2]) | evaluated as antagonist of the α2C receptor subtype (α2C receptor [1]) | Compound | evaluated as agonist of the α2C receptor subtype (α2C receptor [1]) |
| --- | --- | --- | --- |
| – | – | Cn1nccc1-c1ccc2c(c1)[C@@H]1[C@H](CO2)[C@H]1c1c[nH]cn1 (racemic) [(±)-2A] | active or functionally selective agonists |
| – | – | CCN(C(=O)NC)c1ccc2c(c1)[C@@H]1[C@H](CO2)[C@H]1c1c[nH]cn1 (racemic) [(±)-3] | active or functionally selective agonists |
| – | – | COC(=O)N(C)c1ccc2c(c1)[C@@H]1[C@H](CO2)[C@H]1c1c[nH]cn1 (racemic) [(±)-102] | active or functionally selective agonists |
| – | – | CNC(=O)N(C)c1ccc2c(c1)[C@@H]1[C@H](CO2)[C@H]1c1c[nH]cn1 (racemic) [(±)-101] | active or functionally selective agonists |
| < 200 nM | antagonist | c1nc([C@@H]2[C@H]3COc4ccc(-c5cn[nH]c5)cc4[C@H]32)c[nH]1 (racemic) [(±)-2e] | – |
| < 200 nM | antagonist | CCN(C(=O)COC)c1ccc2c(c1)[C@@H]1[C@H](CO2)[C@H]1c1c[nH]cn1 (racemic) [(±)-100] | – |
| – | – | Cc1n[nH]c(C)c1-c1ccc2c(c1)[C@@H]1[C@H](CO2)[C@H]1c1c[nH]cn1 (racemic) [(±)-2C] | active or functionally selective agonists |
| < 200 nM | antagonist | CNc1ncncc1-c1ccc2c(c1)[C@@H]1[C@H](CO2)[C@H]1c1c[nH]cn1 (racemic) [(±)-7] | – |
| < 200 nM | antagonist | Cc1nn(C)c(C)c1-c1ccc2c(c1)[C@@H]1[C@H](CO2)[C@H]1c1c[nH]cn1 (racemic) [(±)-2f] | – |
| – | – | CNc1ncnc(C)c1-c1ccc2c(c1)[C@@H]1[C@H](CO2)[C@H]1c1c[nH]cn1 (racemic) [(±)-8] | active or functionally selective agonists |
| < 200 nM | antagonist | Cc1noc(C)c1-c1ccc2c(c1)[C@@H]1[C@H](CO2)[C@H]1c1c[nH]cn1 (racemic) [(±)-2d] | – |
| < 200 nM | antagonist | c1ncc(-c2ccc3c(c2)[C@@H]2[C@H](CO3)[C@H]2c2c[nH]cn2)cn1 (racemic) [(±)-2] | – |
| – | – | COCC(=O)N(C)c1ccc2c(c1)[C@@H]1[C@H](CO2)[C@H]1c1c[nH]cn1 (racemic) [(±)-5] | active or functionally selective agonists |
| – | – | CCN(C(=O)OC)c1ccc2c(c1)[C@@H]1[C@H](CO2)[C@H]1c1c[nH]cn1 (racemic) [(±)-4] | active or functionally selective agonists |
